Structures can show the parent of a compound that is named as a salt.
Target: T1, Na+/H+ exchanger of rabbit erythrocytes (Oryctolagus cuniculus, UniProt P23791)
T1 construct: endogenous in cells; host or cells: erythrocytes in fresh heparinised blood of White New Zealand rabbits (Ivanovas)
Experiment: Inhibition of the Na+/H+ exchanger of rabbit erythrocytes (amiloride-sensitive sodium influx, flame photometry)
Type: cell-based
Settings: hyperosmolar salt/sucrose medium, pH 7.4, 37° C.
Source text: Inhibition of the Na^+ /H^+ Exchanger of Rabbit Erythrocytes White New Zealand rabbits (Ivanovas) received a standard diet with 2% cholesterol for six weeks in order to activate the Na^+ /H^+ exchange and thus to be able to determine the Na^+ influx into the erythrocytes via Na^+ /H^+ exchange by flame photometry. The blood was removed from the auricular arteries and rendered uncoagulable by means of 25 IU of potassium heparin. A part of each sample was used for the duplicate determination of the hematocrit by centrifugation. Aliquots of 100 μl in each case served for the measurement of the Na^+ starting content of the erythrocytes. In order to determine the amiloride-sensitive sodium influx, 100 μl of each blood sample in 5 ml in each case of a hyperosmolar salt/sucrose medium (mmol/I: 140 NaCl, 3 KCl, 150 sucrose, 0.1 ouabain, 20 tris-hydroxymethyl-aminomethane) were incubated at pH 7.4 and 37° C. The erythrocytes were then washed three times with ice-cold MgCl^2 /ouabain solution (mmol/I: 112 MgCl2, 0.1 ouabain) and hemolyzed in 2.0 ml of distilled water. The intracellular sodium content was determined by flame photometry. The Na^+ net influx was calculated from the difference between sodium starting values and the sodium content of the erythrocytes after incubation. The amiloride-inhibitable sodium influx followed from the difference in the sodium content of the erythrocytes after incubation with and without amiloride 3×10^-4 mol/I. The procedure was the same in the case of the compounds according to the invention.

T1 sequence (P23791 whole entry): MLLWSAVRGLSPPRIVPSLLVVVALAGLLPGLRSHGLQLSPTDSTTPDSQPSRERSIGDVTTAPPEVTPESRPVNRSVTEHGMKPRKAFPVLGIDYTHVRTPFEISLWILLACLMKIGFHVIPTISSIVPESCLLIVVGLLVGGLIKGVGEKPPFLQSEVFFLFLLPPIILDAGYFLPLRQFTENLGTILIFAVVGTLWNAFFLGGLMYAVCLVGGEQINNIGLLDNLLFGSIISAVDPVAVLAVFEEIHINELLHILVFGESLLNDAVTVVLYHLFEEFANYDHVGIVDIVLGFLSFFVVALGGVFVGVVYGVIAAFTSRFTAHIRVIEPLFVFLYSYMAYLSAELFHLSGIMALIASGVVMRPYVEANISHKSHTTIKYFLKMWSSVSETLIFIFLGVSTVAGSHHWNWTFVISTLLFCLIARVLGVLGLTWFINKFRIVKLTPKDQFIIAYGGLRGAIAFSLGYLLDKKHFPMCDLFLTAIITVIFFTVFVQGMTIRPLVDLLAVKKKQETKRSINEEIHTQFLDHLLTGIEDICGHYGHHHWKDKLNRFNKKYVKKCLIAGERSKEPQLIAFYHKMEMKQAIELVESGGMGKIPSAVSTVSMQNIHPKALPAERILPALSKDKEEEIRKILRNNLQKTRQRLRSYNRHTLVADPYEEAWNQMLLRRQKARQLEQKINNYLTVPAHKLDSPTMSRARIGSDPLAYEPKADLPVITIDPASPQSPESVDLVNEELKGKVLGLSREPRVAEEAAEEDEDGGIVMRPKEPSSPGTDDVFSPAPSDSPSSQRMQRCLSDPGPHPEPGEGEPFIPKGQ

Row | IC50 | SMILES
1 | 3.4 µM | COc1ccc(C2NC(N)=Nc3ccccc32)cc1 (stereo not drawn) [Example 1, 2-Amino-4-(4-methoxyphenyl)-3,4-dihydroquinazoline Hydrochloride]
2 | 3.2 µM | COc1ccc(C2NC(N)=Nc3ccccc32)cc1OC (stereo not drawn) [Example 2, 2-Amino-4-(3,4-dimethoxyphenyl)-3,4-dihydroquinazolinium Fumarate]
3 | 4.1 µM | COc1ccc(C2c3ccccc3N=C(N)N2C)cc1OC (stereo not drawn) [Example 3, 2-Amino4-(3,4-dimethoxyphenyl)-3-methyl-3,4-dihydro-quinazolinium Fumarate]

— patent US6331546A, “Use of 2-amino-3,4-dihydroquinazolines for the production of a medicament for the treatment or prophylaxis of illnesses caused by ischemic conditions” (Aventis Pharma Deutschland GmbH, priority 1999, dated 2001)
